Experimental data published in patent US20130273567A1, “Screening Method for Candidate Agonist Compounds for Adiponectin Receptor I” (priority 2010, published 2013).
Blank lines part the entries; values can stand above or below the compound they belong to.

Columns and labels:
CaMKI, HDAC5 = test: Phosphorylation of CaMKI and HDAC5 in C2C12 myocytes (immunoblotting); type: cell-based, mouse; settings: 5 mM EGTA
Procedure: (§1) The mouse C2C12 myoblasts were grown in 90% Dulbecco's modified high glucose Eagle's medium containing 10% (v/v) fetal bovine serum. When the cells reached 80% confluent, the myoblasts were induced to differentiate into myocytes by replacing the medium with a low serum differentiation medium (98% Dulbecco's modified high glucose Eagle's medium, 2.5% (v/v) horse serum). The medium was changed daily. The C2C12 cells were transfected by using Pofectamine 2000 (Invitrogen) and following the manufacturer's instructions.

PGC-1α = PGC-1α (Ppargc1a mRNA) expression in C2C12 myocytes; type: cell-based, mouse; settings: C2C12 myocytes preincubated with AraA 0.5 mM 1 hr, STO-609 1 μg/ml 6 hr or EGTA 5 mM 20 min, then adiponectin 10 μg/ml 1.5 hr
Procedure: Real-time PCR was carried out according to the method described in the following documents (Nature Med. 13, 332-339 2007); Nature 423, 762-769 (2003); J. Biol. Chem. 281, 8748-8755 (2006)). Total RNA was prepared from cells or tissues by using Trizol (Invitrogen) according to the manufacturer's instructions. Quantification of mRNA was conducted using a real-time PCR method (Nature 423, 762-769 (2003)) with slight modifications. The procedures used for immunoblotting are described in the following documents (Nature Med. 7, 941-946 (2001); J. Biol. Chem. 281, 26602-26614 (2006); J. Biol. Chem. 281, 8748-8755 (2006)). The livers or muscles were freeze-clamped in liquid nitrogen in situ (Nature Med. 7, 941-946 (2001); J. Biol. Chem. 281, 26602-26614 (2006); J. Biol. Chem. 281, 8748-8755 (2006)). The mouse C2C12 myoblasts were grown in 90% Dulbecco's modified high glucose Eagle's medium containing 10% (v/v) fetal bovine serum. When the cells reached 80% confluent, the myoblasts were induced to differentiate into myocytes by replacing the medium with a low serum differentiation medium (98% Dulbecco's modified high glucose Eagle's medium, 2.5% (v/v) horse serum). The medium was changed daily. The C2C12 cells were transfected by using Pofectamine 2000 (Invitrogen) and following the manufacturer's instructions.

AMPK = AMPK phosphorylation in C2C12 myocytes (immunoblotting); type: cell-based, mouse; settings: for effect on adiponectin-induced increase in AMPK phosphorylation: C2C12 myocytes preincubated with 5 mM EGTA 20 min, 50 μM BAPTA-AM 30 min or 10 μM U73122 30 min, then adiponectin 30 μg/ml 5 min
Procedure: as §1

mAdipoR1 = target: T1, mAdipoR1 (Mus musculus, UniProt Q91VH1); test: Xenopus oocytes injected with AdipoR1 cRNA, two-electrode voltage clamp recording; type: cell-based; settings: Xenopus oocytes expressing AdipoR1, 5 mM EGTA
T1 construct: expressed in transfected cells; host or cells: Xenopus oocytes (stage V to VII) injected with cRNA
T1 sequence (Q91VH1 1-375): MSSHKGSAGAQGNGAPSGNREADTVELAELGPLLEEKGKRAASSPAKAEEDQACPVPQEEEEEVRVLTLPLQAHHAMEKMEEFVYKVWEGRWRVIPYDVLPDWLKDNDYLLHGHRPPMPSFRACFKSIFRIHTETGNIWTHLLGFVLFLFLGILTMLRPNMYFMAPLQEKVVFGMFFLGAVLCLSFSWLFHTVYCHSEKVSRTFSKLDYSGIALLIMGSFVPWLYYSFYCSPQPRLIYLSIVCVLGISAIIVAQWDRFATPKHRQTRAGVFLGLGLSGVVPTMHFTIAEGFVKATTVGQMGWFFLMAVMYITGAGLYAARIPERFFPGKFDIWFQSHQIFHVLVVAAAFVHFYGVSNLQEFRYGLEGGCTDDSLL
Procedure: Stage V to VII oocytes were treated with 2 mg/ml of collagenase S-1 (Nitta gelatin) in calcium ion-free saline solution (82.5 mM NaCl, 2 mM KCl, 1 mM MgCl2, and 5 mM HEPES, pH 7.5) for 1 to 2 hr at room temperature. The resulting oocytes were then microinjected with 50 ng of cRNA for mAdipoR1. The cRNA was synthesized from linearized modified pSPUTK. The injected oocytes were incubated for 3 days at 18° C. in a bath solution (88 mM NaCl, 1 mM KCl, 0.3 mM Ca(NO3)2, 0.4 mM CaCl2, 0.8 mM MgSO4, 2.4 mM NaHCO3, 15 mM HEPES, pH 7.6) supplemented with 10 μg/ml of penicillin and streptomycin.
Whole cell currents were recorded with a two-electrode voltage clamp technique. Intracellular glass electrodes were filled with 3M KCl. Signals were amplified with an OC-725C amplifier (Warner Instruments), low-pass filtered at 50 Hz, and digitized at 1 kHz. A control bath solution contained 115 mM NaCl, 2.5 mM KCl, 1.8 mM CaCl2, and 10 mM HEPES. It was titrated to pH 7.2 with NaOH. A calcium ion free solution containing 1.8 mM BaCl2 instead of CaCl2 was used. The inward current was monitored at a holding potential of −80 mV. Calcium ion activated Cl^− current was monitored by applying 500-mscc depolarizing pulses of +100 mV and +50 mV from the holding potential of −80 mV. Adiponectin was supplied to the superfusing bath solution via a silicon tube connected to computer-driven solenoid valves. Data acquisition and analysis were carried out using Digidata 1322A and pCLAMP software.

AdipoR1 = target: T2, AdipoR1 (Mus musculus, UniProt Q91VH1); test: Calcium imaging in C2C12 myocytes (fura-2); type: cell-based; set-up: endogenous in cells; host or cells: mouse C2C12 myocytes (differentiated from myoblasts)
T2 sequence (Q91VH1 1-375): T1 sequence (Q91VH1 1-375)
Procedure: C212 myocytes cultured on glass base dishes (IWAKI) were treated with 2.5 μM fura-2/AM for 30 min. Fluorescence was measured with an Aquacosmos Calcium Imaging system (Hamamatsu Photonics). Ligands were delivered through the superfusing Ringer's solution (140 mM NaCl, 5.6 mM KCl, 5 mM HEPES, 2.0 mM sodium pyruvate, 1.25 mM KH2PO4, 2.0 mM CaCl2, 2.0 mM MgCl2, 9.4 mM D-glucose (pH 7.4)). For the calcium chelating experiment, EGTA solution (140 mM NaCl, 5.6 mM KCl, 5 mM HEPES, 2.0 mM sodium pyruvate, 1.25 mM KH2PO4, 2.0 mM MgCl2, 5.0 mM EGTA-2Na, 9.4 mM D-glucose (pH 7.4) was used for the bath solution. Fura-2 fluorescence ratios were calibrated to calcium ion signals.

muscle-R1KO mice [1] = test: Treatment of muscle-R1KO mice with AICAR, resveratrol or MnTBAP; type: in vivo; settings: for citrate synthase activities in muscle / insulin resistance / mitochondrial content in muscle: AICAR 500, resveratrol 400, MnTBAP 10 mg per kg body weight per day
Procedure: Oral glucose tolerance test (OGTT) and insulin tolerance test (ITT) were conducted by the method described in the following documents (Nature Med. 8, 1288-1295 (2002); Nature Med. 7, 941-946 (2001)), with some modifications. The areas of the glucose and insulin curves were calculated, respectively, by multiplying the cumulative mean height of the glucose values (1 mg/ml=1 cm) and insulin values (1 ng/ml=1 cm) by time (60 min=1 cm) (Nature Med. 13, 332-339 (2007); Nature Med. 7, 941-946 (2001)). The insulin resistance index was calculated from the product of the areas of glucose and insulin×10^−2 in the glucose tolerance test. The results were expressed as the percentage of the value of control littermates.

C2C12 myocytes = test: Mitochondrial content assay in C2C12 myocytes (mtDNA copy number, MitoTracker Green); type: cell-based, mouse; settings: C2C12 myocytes preincubated with AraA 0.5 mM 1 hr or STO-609 1 μg/ml 6 hr, then adiponectin 48 hr
Procedure: Mice used were from 8 to 10 week old at the time of the experiment. […] Induction of myogenic differentiation using C2C12 cells was carried out according to the method described in the following document (Nature Med. 8, 1288-1295 (2002)). By day 5, the cells had differentiated into multinucleated contracting myocytes. C2C12 myocytes were used after myogenic differentiation in all experiments.
as §1
(§2) Mitochondrial content assays were carried out as described in the following document (Cell Metab. 4, 75-87 (2006)), with slight modifications. Quantification of the mitochondrial content was conducted by using mtDNA and MitoTracker Green probe (Molecular Probes) according to the method as described in the following document (Obes. Res. 13, 574-581 (2005)). MitoTracker Green probe preferentially accumulates in mitochondria regardless of the mitochondrial membrane potential and provides an accurate assessment of mitochondrial mass. Cells were washed with PBS and after addition of 100 nM MitoTracker Green FM (Molecular Probes), incubated at 37° C. for 30 min. Cells were harvested by using trypsin/EDTA and resuspended in PBS. Fluorescence intensity was detected with excitation and emission wavelengths of 490 and 516 nm, respectively, and the values thus measured were corrected for total protein (mg/ml).

muscle-R1KO mice [2] = test: Increased calcium influx experiment (Bay-K 8644 gelatin hydrogel) in muscle-R1KO mice; type: in vivo; settings: 0.25 μM Bay-K 8644
Procedure: as §2
Citrate synthase activity was determined from the homogeneates by using a spectrophotometer according to the method described in the following documents (Cell Metab. 4, 75-87 (2006); Eur. J. Biochem. 10, 198-206 (1969); Obes Res 13, 574-581 (2005)). The citrate synthase activity was measured at 37° C. in 0.1M Tris-HCl (pH 8.3) assay buffer containing 0.12 mM 5,5′-dithio-bis(2-nitrobenzoic acid) and 0.6 mM oxaloacetate. After recording of absorbance at 412 nm in the first two minutes, the reaction was started with the addition of 3 mM acetyl-CoA and a change in absorbance was measured every 10 sec for 7 min.
Hydrogels were prepared by crosslinking aqueous gelatin solutions with glutaraldehyde according to the method described in the following document (J. Control Release 64, 133-142 (2000)). For incorporating Bay-K 8644 into the resulting gelatin hydrogels, 20 μl of Bay-K 8644 (0.25 μM) was added dropwise onto 20 mg of freeze-dried hydrogel and left it overnight at 4° C. Under anesthesia, the gelatin hydrogel having Bay-K 8644 incorporated therein was implanted under the skin. Then, the skin was carefully sutured with No. 4-0 nylon monofilament.

effect on adiponectin-induced inward current responses (mAdipoR1): almost completely abolishes
effect on calcium-ion activated Cl- current responses to adiponectin (mAdipoR1): almost completely abolished
effect on adiponectin-induced calcium ion response (AdipoR1; 5 mM EGTA (removal of extracellular free calcium ions)): almost completely abolished
effect on ATP-induced intracellular calcium ion release (AdipoR1; EGTA): had no effect
Compound: O=C(O)CN(CCOCCOCCN(CC(=O)O)CC(=O)O)CC(=O)O [EGTA]
effect on increased CaMKI phosphorylation stimulated with adiponectin (CaMKI, HDAC5): almost completely abolished
effect on PGC-1α expression induced by adiponectin (PGC-1α): effectively and almost completely abolished
effect on adiponectin-induced increase in AMPK phosphorylation (AMPK): partially suppressed
effect on phosphorylation of AMPK induced by AICAR (AMPK; C2C12 myocytes, 5 mM EGTA, AICAR 1 mM 1 hr): had no effect
effect on ionomycin-dependent phosphorylation of AMPK (AMPK; C2C12 myocytes, 5 mM EGTA, ionomycin 1 μM): almost completely abolished

Compound: O=C(O)c1ccc(/C2=C3\C=CC(=N3)/C(c3ccc(C(=O)O)cc3)=c3/cc/c4[n]3[Mn]([Cl])[n]3c2ccc3/C(c2ccc(C(=O)O)cc2)=C2/C=CC(=N2)\C=4c2ccc(C(=O)O)cc2)cc1 [MnTBAP]
ROS such as H2O2 in skeletal muscle (muscle-R1KO mice [1]; MnTBAP 10 mg per kg body weight per day, 2 weeks): significantly decreased
citrate synthase activities in muscle (muscle-R1KO mice [1]; muscle-R1KO mice, 2 weeks): failed to significantly increase
insulin resistance (muscle-R1KO mice [1]; muscle-R1KO mice, 2 weeks): tended to ameliorate
mitochondrial content in muscle (muscle-R1KO mice [1]; muscle-R1KO mice, 2 weeks): failed to significantly increase

Compound: O=C(O)c1ccc2c3c1cccc3c(=O)n1c3ccccc3nc21 [STO-609]
effect on adiponectin-induced increase in mitochondrial biogenesis (C2C12 myocytes): almost completely abolished
effect on PGC-1α expression induced by adiponectin (PGC-1α): effectively and almost completely abolished

Compound: Nc1ncnc2c1ncn2[C@@H]1O[C@H](CO)[C@@H](O)[C@@H]1O [AraA]
effect on adiponectin-induced increase in mitochondrial biogenesis (C2C12 myocytes): almost completely abolished
effect on PGC-1α expression induced by adiponectin (PGC-1α): only tended to decrease

Compound: NC(=O)c1ncn([C@@H]2O[C@H](CO)[C@@H](O)[C@H]2O)c1N [AICAR, 5-aminoimidazole-4-carboxamide-1-β-D-libocide]
citrate synthase activities in muscle (muscle-R1KO mice [1]; muscle-R1KO mice, 2 weeks): increased
insulin resistance (muscle-R1KO mice [1]; muscle-R1KO mice, 2 weeks): significantly ameliorated
mitochondrial content in muscle (muscle-R1KO mice [1]; muscle-R1KO mice, 2 weeks): increased
rescue of the AdipoR1 loss in muscle (muscle-R1KO mice [1]; muscle-R1KO mice, AICAR 500 mg per kg body weight per day, 2 weeks): significantly but partially rescued
phosphorylation of AMPK in muscle (muscle-R1KO mice [1]; muscle-R1KO mice, AICAR 500 mg per kg body weight per day, 2 hours): significantly increased

Compound: CC(=O)OCOC(=O)CN(CC(=O)OCOC(C)=O)c1ccccc1OCCOc1ccccc1N(CC(=O)OCOC(C)=O)CC(=O)OCOC(C)=O [BAPTA-AM, Bis-(o-aminophenoxy)ethane-N,N,N9,N9-tetra-acetic acid, tetraacetoxymethyl ester]
effect on adiponectin-induced increase in AMPK phosphorylation (AMPK): partially suppressed

Compound: COc1ccc2c(c1)CC[C@@H]1[C@@H]2CC[C@]2(C)[C@@H](NCCCCCCN3C(=O)C=CC3=O)CC[C@@H]12 [U73122]
effect on adiponectin-induced increase in AMPK phosphorylation (AMPK): had little effect

Compound: Oc1ccc(C=Cc2cc(O)cc(O)c2)cc1 [resveratrol]
citrate synthase activities in muscle (muscle-R1KO mice [1]; muscle-R1KO mice, 2 weeks): increased
insulin resistance (muscle-R1KO mice [1]; muscle-R1KO mice, 2 weeks): significantly ameliorated
mitochondrial content in muscle (muscle-R1KO mice [1]; muscle-R1KO mice, 2 weeks): increased

Compound: COC(=O)C1=C(C)NC(C)=C([N+](=O)[O-])C1c1ccccc1C(F)(F)F (stereo not shown) [Bay-K 8644]
CaMKKβ activity (phosphorylation of CaMKI) in skeletal muscle (muscle-R1KO mice [2]): increase
citrate synthase activities in muscle (muscle-R1KO mice [2]): significantly enhanced
insulin-stimulated phosphorylation of Akt in muscle (muscle-R1KO mice [2]): significantly enhanced
mitochondrial content in muscle (muscle-R1KO mice [2]): significantly enhanced
